According to patent US8309766B2 (Obschestvo S. Organichennoi Otvetstvennostiyu …, priority 2005, dated 2012):
Read-outs that look alike come from different tables or passages of the source.

Tests used:
[1] = tested on: "acetic contortions" in mice; test: Analgetic activity on the model "acetic contortions"; assay type: in vivo, white mongrel mice; details: dose 10 mg/kg (table title); for inhibition in vivo at 10 mg/kg / response vs control in vivo at 10 mg/kg: Mus musculus, ip, 0.25 h; for inhibition in vivo at 10 mg/kg: read-out: Analgetic effect (%); for response vs control in vivo at 10 mg/kg: read-out: C, % to the control; for C ± m (the number of contortions for 15 minutes): 60 minutes prior to acetic acid
Description: (§1) The tests were conducted on males of white mongrel mice weighing 22-24 grams. The specific pain response (“contortions”) were elicited by intraperitoneal administration to mice of 0.75% acetic acid solution. The following signs were taken into consideration: the number of seizure contractions of abdominal muscles accompanied by stretching the hind limbs and sagging the back. Analgetic effect was assessed by decrease in the number of contortions in animals in percent to the control for 15 minutes post administration of acetic acid. The technique of the tests is disclosed in Koster R., Anderson M., de Beer B.//Fed. Proc. 1959. V. 18. P. 412. Compounds under testing were administered intraperitoneally (using a probe) at a dose 10 μg/kg 60 minutes prior to injection of the acid. Diclofenac (10 mg/kg) was used as a reference drug. Analgetic effect was calculated according to the formula: […]
wherein Ck is the number of contortions in the control group,
Co is the number of contortions in the test group.

cyclooxygenase = test: In vitro effect on [14C]arachidonic acid metabolism in a cell-free homogenate of murine pulmonary tissue; assay type: biochemical, CBA mice; details: compound 10^−4 M; for Prostanoids: b308 reads these as % cyclooxygenase inhibition; for 6-keto-PGF1α / PGF2α: first of only four cells in the row; for TXB2 / PGE2: second of only four cells in the row
Description: Studies of arachidonic acid metabolism was carried out on females CBA mice who where fed a standard vivarium fodder. Animals (mice) were sacrificed, lungs were extracted, homogenized in a glass homogenizer manufactured by the firm “Wheaton” (USA) at 4° C. in 10 volumes of 0.05 M Tris-HCl buffer. Aliquots (0.5 ml) of supernatant were incubated in 0.5 μCi [1-C^14]-arachidonic acid [C^14]-AA, “Amersham”, England; specific activity 50-60 μCi/mmole) at 37° C. for 30 minutes. Non-metabolized [αC^14]-AA and products of metabolism thereof were extracted in 20 volumes of chloroform and methanol mixture (1:1) in extraction efficacy not less than 90% assessed using [C^14]-PGF2α. [C^14]-AA and metabolites thereof were separated and identified using TLC (the plates Kieselgel 60 of the “Merck” firm, Germany) using as an organic phase, the system of solvents (ethylacetate, isooctane, acetic acid, water—110:50:20:100) and labeled standards. Densitometry of autoradiochromograms obtained on the X-ray film X-Omat AR (“Kodak”, USA) and HS 11 (“ORWO”, Germany), was performed on the densiscan KS 3 (“Kipp and Zonnen”, Holland). Quantitative analysis of individual eicosanoids was carried out using radiometry of fractions obtained by high-performance liquid chromatography (the HPLC-system of the “Gilson” form, France; the column ZORBAX C8 of the “Du Pont” firm, USA) and by elution of spots on TLC-plates. The tested compounds were administered at concentration 10^−4 M.

"hot plate" test in mice = test: Analgetic activity on the model "hot plate"; assay type: in vivo, white mongrel mice; details: for response vs control in vivo at 10 mg/kg / change in vivo at 10 mg/kg: Mus musculus; for response vs control in vivo at 10 mg/kg: read-out: Latent time of NT (%); for change in vivo at 10 mg/kg: read-out: Analgesia (%)
Description: The tests were conducted on males of white mongrel mice weighing 22-24 grams. The animals were individually placed on a hot plate (manufactured by the firm “Ugo Basile”), a temperature of which remained constant and was equal to 55° C. The following first manifestations of pain reaction were recorded: licking paws, jumping up prior to administration of a substance (background parameters) and 0.5, 1, 2, 3 and 4 hours post administration of a substance. Substances were administered […] (using a probe). A weighed amount of a substance was thoroughly mixed in 0.1 ml Tween 80 until a solution was obtained, then normal saline was added up to a volume of 0.5 ml. Average latent time of nociception threshold (NT) was calculated in every group. The results obtained were expressed in percent of the background values. Analgetic effect (in %) was calculated according to the formula: A−100%=X, wherein A is a background parameter; X is analgetic effect (in %)
A is (time 0.5 to 4 hours post administration×100%): background time
As reference drugs, Analgin (150 mg/kg), Paracetamol (200 mg/kg), Ketorol (10 mg/kg), were used.

[2] = tested on: "acetic contortions" in mice; test: Effect on analgetic action of Tramal and Analgin on the model "acetic contortions"; assay type: in vivo, white mongrel mice; details: Analgin 50 mg/kg alone
Description: as §1
The studies were carried out in accordance with the technique presented in Example 18.

[3] = 10 mg/kg, 60 minutes post administration
[4] = 10 mg/kg, 120 minutes post administration

O=C(Cc1ccc(O)cc1)NCCc1ccccc1
inhibition in vivo at 10 mg/kg [1]: 56.5%
response vs control in vivo at 10 mg/kg [1]: 43.5%
C ± m (the number of contortions for 15 minutes) [1]: 16.0 ± 4.5
Prostanoids (cyclooxygenase; 37° C., 30 minutes): −40
AA (arachidonic acid) (cyclooxygenase; 37° C., 30 minutes, change): +40
6-keto-PGF1α / PGF2α (cyclooxygenase): −45
TXB2 / PGE2 (cyclooxygenase): −33
latent time of nociception threshold, M ± m ("hot plate" test in mice; [3]): 8.5 ± 0.27 s
latent time of nociception threshold, M ± m ("hot plate" test in mice; [4]): 6.5 ± 1.16 s
response vs control in vivo at 10 mg/kg ("hot plate" test in mice; 1 h, 10 mg/kg, 60 minutes, percent of background): 160%
change in vivo at 10 mg/kg ("hot plate" test in mice; 1 h, 10 mg/kg, 60 minutes): 59.6%
response vs control in vivo at 10 mg/kg ("hot plate" test in mice; 2 h, 10 mg/kg, 120 minutes, percent of background): 123%
change in vivo at 10 mg/kg ("hot plate" test in mice; 2 h, 10 mg/kg, 120 minutes): 23.3%

Cc1c(N(C)CS(=O)(=O)[O-])c(=O)n(-c2ccccc2)n1C.[Na+] [Analgin, reference compound]
Analgetic effect, % [2]: 37.5%
Number of contortions for 15 minutes, M ± m [2]: 20.7 ± 2.3
Analgesia (%) ("hot plate" test in mice; Analgin 150 mg/kg, 30 minutes): 53.4%
Latent time of NT (%) ("hot plate" test in mice; Analgin 150 mg/kg, 30 minutes): 153.4%
latent time of nociception threshold, M ± m ("hot plate" test in mice; Analgin 150 mg/kg, 30 minutes): 7.44 ± 1.22 s
Analgesia (%) ("hot plate" test in mice; Analgin 150 mg/kg, 60 minutes): 50.3%
Latent time of NT (%) ("hot plate" test in mice; Analgin 150 mg/kg, 60 minutes): 150.3%
latent time of nociception threshold, M ± m ("hot plate" test in mice; Analgin 150 mg/kg, 60 minutes): 7.29 ± 0.71 s
Analgesia (%) ("hot plate" test in mice; Analgin 150 mg/kg, 120 minutes): 28.9%
Latent time of NT (%) ("hot plate" test in mice; Analgin 150 mg/kg, 120 minutes): 128.9%
latent time of nociception threshold, M ± m ("hot plate" test in mice; Analgin 150 mg/kg, 120 minutes): 6.25 ± 0.75 s
Analgesia (%) ("hot plate" test in mice; Analgin 150 mg/kg, 240 minutes): 10.3%
Latent time of NT (%) ("hot plate" test in mice; Analgin 150 mg/kg, 240 minutes): 110.3%
latent time of nociception threshold, M ± m ("hot plate" test in mice; Analgin 150 mg/kg, 240 minutes): 5.35 ± 0.38 s

O=C(CCc1ccc(O)cc1)NCCc1ccc(O)cc1 [Compound X, 3-(p-hydroxyphenyl)-propionyltyramine]
inhibition in vivo at 10 mg/kg [1]: 54%
response vs control in vivo at 10 mg/kg [1]: 46%
C ± m (the number of contortions for 15 minutes) [1]: 11.0 ± 2.4
Prostanoids (cyclooxygenase; 37° C., 30 minutes): −22
6-keto-PGF1α (cyclooxygenase; 37° C., 30 minutes, change): −9
AA (arachidonic acid) (cyclooxygenase; 37° C., 30 minutes, change): +27
PGE2 (cyclooxygenase; 37° C., 30 minutes, change): −38
PGF2α (cyclooxygenase; 37° C., 30 minutes, change): −15
TXB2 (cyclooxygenase; 37° C., 30 minutes, change): −42
Analgesia (%) ("hot plate" test in mice; 10 mg/kg, 30 minutes): 75.3%
latent time of nociception threshold, M ± m ("hot plate" test in mice; 10 mg/kg, 30 minutes post administration): 7.54 ± 0.78 s
Latent time of NT (%) ("hot plate" test in mice; 10 mg/kg, 30 minutes, percent of background): 175.3%
Analgesia (%) ("hot plate" test in mice; 10 mg/kg, 60 minutes): 33.8%
latent time of nociception threshold, M ± m ("hot plate" test in mice; [3]): 5.75 ± 0.83 s
Latent time of NT (%) ("hot plate" test in mice; 10 mg/kg, 60 minutes, percent of background): 133.7%
Analgesia (%) ("hot plate" test in mice; 10 mg/kg, 120 minutes): 97.7%
latent time of nociception threshold, M ± m ("hot plate" test in mice; [4]): 8.50 ± 1.03 s
Latent time of NT (%) ("hot plate" test in mice; 10 mg/kg, 120 minutes, percent of background): 197.7%
Analgesia (%) ("hot plate" test in mice; 10 mg/kg, 240 minutes): 100.6%
latent time of nociception threshold, M ± m ("hot plate" test in mice; 10 mg/kg, 240 minutes post administration): 8.84 ± 0.925 s
Latent time of NT (%) ("hot plate" test in mice; 10 mg/kg, 240 minutes, percent of background): 200.6%

O=C(CCc1ccccc1)NCCc1ccc(O)cc1 [Compound XII, 3-phenylpropionyltyramine]
inhibition in vivo at 10 mg/kg [1]: 41.4%
response vs control in vivo at 10 mg/kg [1]: 58.6%
C ± m (the number of contortions for 15 minutes) [1]: 20.1 ± 2.1
Prostanoids (cyclooxygenase; 37° C., 30 minutes): −44
AA (arachidonic acid) (cyclooxygenase; 37° C., 30 minutes, change): +42
6-keto-PGF1α / PGF2α (cyclooxygenase): −42
TXB2 / PGE2 (cyclooxygenase): −47
